Columns and labels:
Conditions in all cases: 48 h
NOMO1 [1] = experiment: cell viability relative to DMSO control; higher = less cytotoxic
Method in brief: (§1)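 Viability, reported as a per-plate percentage of DMSO wells with cell-free wells as background, came from CellTiter-Glo One luminescence. Reading took place after 48 h at 37°C. Before that, NOMO1 or SEM (500 cells/well) or P12-Ichikawa (1000 cells/well) leukemia cells, adapted for at least four passages in each medium, were seeded in 1536-well plates (5 μl) and pin-dosed with library compounds in DMSO, 47 μM to 0.79 nM over 11 threefold points.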

P12-Ichikawa [2] = experiment: as above
Method in brief: as §1

SEM cells [3] = experiment: as above
Method in brief: as §1

NOMO1 [4] = experiment: AUC of viability dose-response curve (% viability x log10 dose units); higher = less sensitive
Method in brief: (§2)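 Viability of medium-adapted leukemia cells was measured by CellTiter-Glo One luminescence after 48 h at 37°C with library compounds in DMSO. Doses were 11 threefold steps from 47 μM to 0.79 nM, in 1536-well plates at 500 or 1000 cells/well. Signals were normalised per plate to DMSO and cell-free wells and fitted with a four-parameter log-logistic model on log10 dose. Area under the curve was integrated by trapezoidal rule, with curves exceeding full viability scaled and failed quality-control curves removed.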

P12-Ichikawa [5] = experiment: as above
Method in brief: as §2

SEM cells [6] = experiment: as above
Method in brief: as §2

C[N+]1(C)[C@@H]2C[C@@H](OC(=O)[C@H](CO)c3ccccc3)C[C@H]1[C@@H]1O[C@@H]12.[Br-]
cell viability [%]
Conditions	NOMO1 [1]	P12-Ichikawa [2]	SEM cells [3]
HPLM + 10% dialyzed FBS, 0.000781 µM	91.9	88.6	85
HPLM + 10% dialyzed FBS, 0.00234 µM	95.1	94.2	94.6
HPLM + 10% dialyzed FBS, 0.00702 µM	108	94.3	96.1
HPLM + 10% dialyzed FBS, 0.0211 µM	113	102	93.9
HPLM + 10% dialyzed FBS, 0.0632 µM	105	104	105
HPLM + 10% dialyzed FBS, 0.19 µM	99.4	104	102
HPLM + 10% dialyzed FBS, 0.569 µM	86.5	96.9	110
HPLM + 10% dialyzed FBS, 1.71 µM	93.5	90.8	117
HPLM + 10% dialyzed FBS, 5.12 µM	99.5	100	103
HPLM + 10% dialyzed FBS, 15.4 µM	89.2	106	114
HPLM + 10% dialyzed FBS, 46.1 µM	101	102	102
RPMI 5 mM glucose + 10% FBS, 0.000781 µM	95.5	95	92.3
RPMI 5 mM glucose + 10% FBS, 0.00234 µM	91.8	103	90.4
RPMI 5 mM glucose + 10% FBS, 0.00702 µM	86.6	105	102
RPMI 5 mM glucose + 10% FBS, 0.0211 µM	89.4	99.1	95.1
RPMI 5 mM glucose + 10% FBS, 0.0632 µM	85	108	100
RPMI 5 mM glucose + 10% FBS, 0.19 µM	88.5	99.2	92
RPMI 5 mM glucose + 10% FBS, 0.569 µM	86.9	101	107
RPMI 5 mM glucose + 10% FBS, 1.71 µM	90.3	98.7	112
RPMI 5 mM glucose + 10% FBS, 5.12 µM	90.4	97.8	105
RPMI 5 mM glucose + 10% FBS, 15.4 µM	86.1	122	93.3
RPMI 5 mM glucose + 10% FBS, 46.1 µM	86.8	110	89.5
RPMI 5 mM glucose + 10% dialyzed FBS, 0.000781 µM	83	82.4	77.3
RPMI 5 mM glucose + 10% dialyzed FBS, 0.00234 µM	90.5	47.6	87.2
RPMI 5 mM glucose + 10% dialyzed FBS, 0.00702 µM	86.9	90.7	109
RPMI 5 mM glucose + 10% dialyzed FBS, 0.0211 µM	91	90.7	98.6
RPMI 5 mM glucose + 10% dialyzed FBS, 0.0632 µM	91.6	97.8	105
RPMI 5 mM glucose + 10% dialyzed FBS, 0.19 µM	90.8	99.5	107
RPMI 5 mM glucose + 10% dialyzed FBS, 0.569 µM	91.6	101	112
RPMI 5 mM glucose + 10% dialyzed FBS, 1.71 µM	97.2	89.9	105
RPMI 5 mM glucose + 10% dialyzed FBS, 5.12 µM	107	91.2	121
RPMI 5 mM glucose + 10% dialyzed FBS, 15.4 µM	89	99.6	103
RPMI 5 mM glucose + 10% dialyzed FBS, 46.1 µM	98.7	103	101

AUC of viability dose-response curve
Conditions	NOMO1 [4]	P12-Ichikawa [5]	SEM cells [6]
HPLM + 10% dialyzed FBS	457	456	448
RPMI 5 mM glucose + 10% FBS	423	424	467
RPMI 5 mM glucose + 10% dialyzed FBS	442	435	462

[NH2][Pt]([NH2])([Cl])[Cl]
cell viability [%]
Conditions	NOMO1 [1]	P12-Ichikawa [2]	SEM cells [3]
HPLM + 10% dialyzed FBS, 0.000781 µM	94.8	99.2	93.8
HPLM + 10% dialyzed FBS, 0.00234 µM	110	105	96
HPLM + 10% dialyzed FBS, 0.00702 µM	91.2	95.1	94.5
HPLM + 10% dialyzed FBS, 0.0211 µM	103	90.3	95.2
HPLM + 10% dialyzed FBS, 0.0632 µM	121	102	107
HPLM + 10% dialyzed FBS, 0.19 µM	110	96	99.4
HPLM + 10% dialyzed FBS, 0.569 µM	93.8	97.6	92.2
HPLM + 10% dialyzed FBS, 1.71 µM	99.4	98.2	89.6
HPLM + 10% dialyzed FBS, 5.12 µM	95.5	101	79.1
HPLM + 10% dialyzed FBS, 15.4 µM	90.5	98.2	70.9
HPLM + 10% dialyzed FBS, 46.1 µM	94	105	62.1
RPMI 5 mM glucose + 10% FBS, 0.000781 µM	83.7	86.2	82.9
RPMI 5 mM glucose + 10% FBS, 0.00234 µM	92.2	92.8	105
RPMI 5 mM glucose + 10% FBS, 0.00702 µM	79.8	95.6	101
RPMI 5 mM glucose + 10% FBS, 0.0211 µM	99.6	98	93.2
RPMI 5 mM glucose + 10% FBS, 0.0632 µM	89.7	101	102
RPMI 5 mM glucose + 10% FBS, 0.19 µM	103	101	98.8
RPMI 5 mM glucose + 10% FBS, 0.569 µM	85.9	90.7	118
RPMI 5 mM glucose + 10% FBS, 1.71 µM	88.1	94.3	71
RPMI 5 mM glucose + 10% FBS, 5.12 µM	84.6	89	70.9
RPMI 5 mM glucose + 10% FBS, 15.4 µM	82.4	90.8	65.1
RPMI 5 mM glucose + 10% FBS, 46.1 µM	81.3	95.5	52.4
RPMI 5 mM glucose + 10% dialyzed FBS, 0.000781 µM	90	88.4	85
RPMI 5 mM glucose + 10% dialyzed FBS, 0.00234 µM	90.6	94.6	85.3
RPMI 5 mM glucose + 10% dialyzed FBS, 0.00702 µM	88	85.2	88.1
RPMI 5 mM glucose + 10% dialyzed FBS, 0.0211 µM	85.8	92	89.5
RPMI 5 mM glucose + 10% dialyzed FBS, 0.0632 µM	97.4	91.1	86.8
RPMI 5 mM glucose + 10% dialyzed FBS, 0.19 µM	94.7	95.6	97.8
RPMI 5 mM glucose + 10% dialyzed FBS, 0.569 µM	96.8	92.2	88.1
RPMI 5 mM glucose + 10% dialyzed FBS, 1.71 µM	96	87.6	74.3
RPMI 5 mM glucose + 10% dialyzed FBS, 5.12 µM	94.9	98.8	65.9
RPMI 5 mM glucose + 10% dialyzed FBS, 15.4 µM	89.3	88.4	55.3
RPMI 5 mM glucose + 10% dialyzed FBS, 46.1 µM	101	85.2	51.8

AUC of viability dose-response curve
Conditions	NOMO1 [4]	P12-Ichikawa [5]	SEM cells [6]
HPLM + 10% dialyzed FBS	456	470	429
RPMI 5 mM glucose + 10% FBS	421	449	419
RPMI 5 mM glucose + 10% dialyzed FBS	445	433	380

— the supplement of paper PMC11451515
